These results are taken from patent US12509451B2, “Heteroaryl amide inhibitors of CD38” (NAPA THERAPEUTICS LTD., priority 2020, dated 2025).

Test [1] concerns the target T1, recombinant human CD38 Protein (Homo sapiens, UniProt P28907).
T1 construct: purchased R&D System
T1 sequence (P28907 1-300): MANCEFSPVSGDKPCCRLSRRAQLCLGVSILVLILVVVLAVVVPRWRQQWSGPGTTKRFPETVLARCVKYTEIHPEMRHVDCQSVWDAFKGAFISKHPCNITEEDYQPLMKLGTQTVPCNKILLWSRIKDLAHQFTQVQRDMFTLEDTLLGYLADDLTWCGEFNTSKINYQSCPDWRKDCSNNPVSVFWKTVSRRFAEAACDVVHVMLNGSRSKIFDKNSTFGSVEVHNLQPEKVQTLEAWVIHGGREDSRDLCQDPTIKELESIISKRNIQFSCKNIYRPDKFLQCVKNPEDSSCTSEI
The test can be described thus: Fluorescence-based NAD+ hydrolase activity assay with human recombinant CD38 protein (Assay 3). Particulars: read-out: Assay 3 Arithmetic mean IC50. It counts as biochemical. In short, it runs like this:
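Recombinant human CD38, 10 ng/well in sucrose-Tris buffer (0.25 M sucrose, 40 mM Tris pH 7.4), with compound at 8 final concentrations from 400 nM to 25.6 pM; reaction started with 80 μM etheno-NAD+.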

Test [2] has as its target T2, recombinant mouse CD38 Protein (Mus musculus, UniProt P56528).
T2 construct: purchased R&D System
T2 sequence (P56528 1-304): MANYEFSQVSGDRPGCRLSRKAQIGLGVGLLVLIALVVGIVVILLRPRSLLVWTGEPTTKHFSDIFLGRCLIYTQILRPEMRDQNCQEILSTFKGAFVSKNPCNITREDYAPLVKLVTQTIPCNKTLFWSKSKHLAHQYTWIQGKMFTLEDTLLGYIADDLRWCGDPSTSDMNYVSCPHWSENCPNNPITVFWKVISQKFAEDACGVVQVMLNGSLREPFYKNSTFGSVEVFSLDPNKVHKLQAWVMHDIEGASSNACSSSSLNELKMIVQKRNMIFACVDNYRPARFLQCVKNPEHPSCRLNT
In words: Fluorescence-based NAD+ hydrolase activity assay with mouse recombinant CD38 protein (Assay 5). It counts as biochemical. Particulars: read-out: Assay 5 Arithmetic mean IC50. The method, boiled down: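 Recombinant mouse CD38 (2.5 ng/well) in 0.25 M sucrose, 40 mM Tris pH 7.4, with compound at 8 final concentrations from 400 nM to 25.6 pM; reaction started with 80 µM etheno-NAD+. Fluorescence (ex 321, em 410 nm) read each minute for 1 h at 37 °C; activity as linear slope, IC50 from 3 independent experiments.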

Broadly, the IC50 is the midpoint of a concentration-inhibition curve. Take `Cn1ccnc1-c1cccc(C(=O)Nc2cccnc2)n1` [Compound 48]: the IC50 in test [1] and in test [2] was 1 to 50 nM each time.
With `Cc1cc(C(=O)Nc2cccnc2)nc(-n2ccnc2)n1` [Compound 49, 2-(1H-imidazol-1-yl)-6-methyl-N-(pyridin-3-yl)pyrimidine-4-carboxamide], the IC50 in test [1] and in test [2] was below 1 nM each time.
In the case of `Cc1cc(C(=O)Nc2ccncc2)nc(-n2ccnc2)n1` [Compound 50], the IC50 in test [1] and in test [2] was below 1 nM each time.
As for `O=C(Nc1ccnc(C(F)(F)F)c1)c1cc(C2CC2)nc(-n2ccnc2)n1` [Compound 51, 6-cyclopropyl-2-(1H-imidazol-1-yl)-N-(2-(trifluoromethyl)pyridin-4-yl)pyrimidine-4-carboxamide], the half-inhibitory concentration (IC50) in test [1] and in test [2] was below 1 nM each time.
`Cc1cc(C(=O)Nc2ccncc2)nc(-n2ccnc2)c1` [Compound 52, 6-(1H-imidazol-1-yl)-4-methyl-N-(pyridin-4-yl)picolinamide]: the figures for the IC50 in test [1] and in test [2] were 1 to 50 nM and below 1 nM, respectively.
Turning to `Cc1cc(C(=O)Nc2cccnc2)nc(-n2ccnc2)c1` [Compound 53], the IC50 in test [1] was 1 to 50 nM; in test [2] it was below 1 nM.
In the case of `Cc1cc(C(=O)Nc2ccc(C(N)=O)nc2)nc(-n2ccnc2)c1` [Compound 54, N-(6-carbamoylpyridin-3-yl)-6-(1H-imidazol-1-yl)-4-methylpicolinamide], the IC50 in test [1] was 1 to 50 nM; in test [2], below 1 nM.
Turning to `Cc1cc(C(=O)Nc2ccnc(C(N)=O)c2)nc(-n2ccnc2)c1` [Compound 55], the half-maximal inhibitory concentration (IC50) in test [1] and in test [2] was below 1 nM each time.
Consider `CNC(=O)c1cc(NC(=O)c2cc(C)cc(-n3ccnc3)n2)ccn1` [Compound 56], for which the IC50 in test [1] was 1 to 50 nM; in test [2] it was below 1 nM.
As to `CNC(=O)c1ccc(NC(=O)c2cc(C)cc(-n3ccnc3)n2)cn1` [Compound 57], the IC50 in test [1] and in test [2] was below 1 nM each time.
Turning to `Cc1ccc(-n2ccnc2)nc1C(=O)Nc1cccnc1` [Compound 59, 6-(1H-imidazol-1-yl)-3-methyl-N-(pyridin-3-yl)picolinamide], the IC50 in test [1] and in test [2] was 1 to 50 nM each time.
As for `O=C(Nc1cccnc1)c1ccc(F)c(-n2ccnc2)n1` [Compound 61], the IC50 in test [1] and in test [2] was 1 to 50 nM throughout.
`O=C(Nc1cccnc1)c1nc(-n2ccnc2)ccc1F` [Compound 62]: the IC50 in test [1] and in test [2] was 1 to 50 nM each time.
Take `Nc1cc(C(=O)Nc2cccnc2)nc(-n2ccnc2)c1` [Compound 67]: the IC50 in test [1] and in test [2] was 1 to 50 nM throughout.
